Measurements taken from patent US6812214B2, “Use of harpagid-related compounds for prevention and treatment of osteoporosis, arthritis and ruptured disc and pharmaceutical composition containing the same” (priority 2000, dated 2004).
“Also recorded” adds a separate entry of the source.

Experiments:
COX-II [1] = test: Inhibition of COX-II expression at the level of transcription through RT-PCR; assay type: cell-based
Description: In order to identify the ingredient having an inhibitory activity against COX-II and inducible nitric oxide synthetase (iNOS) as the causal factors of rheumatoid arthritis in the extract used as the effective component of the pharmaceutical composition according to the present invention as in Experiment 6 above, the cells were distributed in T75 flask at the concentration of 10^5 cells, incubated for 7 days and then stimulated for 2 hours by introducing LPS in the flask at the concentration of 50 ng/ml. Then, the extract of the present invention was added so as to make the final concentration of 50 μg/ml. The cells were harvested into a 1.5 ml Eppendorf tube and centrifuged with 15,000 rpm at 4° C. for 15 minutes to remove the supernatant. 200 μl of RNAzol solution was added to the residue followed by addition of 50 μl of chloroform. The cells were lysed by careful pippeting, and then centrifuged with 15,000 rpm at 4° C. for 15 minutes to recover a total RNA, which was then precipitated at 4° C. for 15 minutes by adding the same volume of isopropanol, washed once with 75% ethanol and then dried. The cell lysate was dissolved by adding 20 μl of […] and then warming the mixture at 60° C. for 30 minutes. Then, reverse transcriptase reaction was conducted at 50° C. for 20 minutes by adding 5 μl of 10 mM dNTP, 6 μl of 25 mM MgCl2, 5 μl of 10× RNA PCR buffer, 1 μl of RNase inhibitor, 1 μl of AMV-optimized Taq, 1 μl of AMV reverse transcriptase XL, 1 μl of 50 pM specific primer (sense/antisense), and 26 μl of RNase free dH2O to 5 μl of total RNA, and then stopped at 94° C. for 2 minutes to conduct DNA synthetic reaction (polymerase chain reaction: PCR). The PCR was conducted under conditions comprising 94° C. 1 minute, 55° C. 45 seconds, 70° C. 60 seconds for 35 cycles, and then, finally the elongation reaction was conducted at 70° C. for 5 minutes to complete the reaction. The resulting PCR product was eluted on 1% agarose gel and observed whether the bands are present near 395 bp and 278 bp on the basis of a size marker.

Raw 264.7 cell lines [2] = test: Induction of apoptosis of macrophages; assay type: cell-based; conditions: Raw 264.7 cells; 10 μg/ml, 24 hours
Description: (§1) In order to determine whether the compound identified as the effective component of the pharmaceutical composition separated according to the present invention can induce the apoptosis of Raw 264.7 cell lines as macrophage involved in inflammatory reaction and synovial cells, the cells were distributed on 5% DMEM medium supplemented with penicillin/streptomycin in a 6-well culture dish at the concentration of 10^4 cells and then incubated at 37° C. for 24 hours while adding the extractions as above at the concentration of 10 μg/ml to observe the reaction. Apoptosis was examined by taking a photograph of apoptosis-induced cells under a polarizing microscope of 200 magnifications.

[3] = Effect on arthritis of the compounds isolated from Harpagophytum procumbens DC (summary statement); conditions: summary in background text
synovial cells = test: Induction of apoptosis of synovial cell lines; assay type: cell-based, human; conditions: 10 μg/ml, 24 hours
Description: The synovial cells separated from outpatients suffering from rheumatoid arthritis were distributed on 5% DMEM medium supplemented with penicillin/streptomycin in a 6-well culture dish at the concentration of 10^4 cells and then incubated for 24 hours at 37° C. to observe the surviving cells. In order to determine the presence or absence of cells and the proliferating state of cells, apoptosis-induced cells were examined by taking their photographs under a phase-contrast microscope of 200 magnifications.
as §1

[4] = system: edema-induced albino rats; test: Inhibitory effect on edema of arthritis (Zymosan-A / Freund's adjuvant induced paw edema); assay type: in vivo; conditions: for inhibitory effect on edema: in words, after 70 days
Description: In order to observe the inhibitory effect on edema of the pharmaceutical composition of the present invention, 6 albino rats weighing 200 g were used per test group to induce edema by injecting the mixture of 0.5 ml of Zymosan-A (20 mg/ml/kg) and 0.5 ml of Freund's adjuvant into ST36 position of left paw and then observed for the progress of edema for 70 days by taking a photograph before and after induction of edema. The water extract and organic solvent fractions of the pharmaceutical composition of the present invention were respectively constituted in the concentration of 0.6 mg/ml and then orally administered for 14 days to albino rats in an amount of 1 ml per kg of body weight once a day to determine the inhibitory effect on edema. As the test sample, the organic solvent fractions of the pharmaceutical composition including ABE, ABB, ABW, CBE, CBB, CBW, LNE, LNB, LNW, CRB, CRW, SSH and SSW were respectively used. As the result of this test, it was observed that edema was started to induce on day 4 and reached the peak point after about 45 days. The period for this test was established as 70 days after edema induction to observe the inhibitory effect on edema of the extracts of the present invention. As the result, the edema size was measured using a precision gauge.

Raw 264.7 cell lines [5] = test: Effect on cell cycle of macrophage cells (flow cytometry); assay type: cell-based; conditions: 20 μg/ml, LPS 50 ng/ml, propidium iodide flow cytometry
Description: (§2) Two kinds of cells were incubated as in Experiment 6 and then washed with PBS (phosphate-buffered saline). LPS was distributed on the respective dishes at the concentration of 50 ng/ml to stimulate the cells. Then, the extract according to the present invention was added over 2 hours so as to make the final concentration of 20 μg/ml. The supernatant was removed, washed with PBS and then treated with trypsin. The cells were harvested, introduced into Eppendorf tube and then centrifuged at 1,000 rpm for 5 minutes to remove the supernatant. The residue was fixed with addition of 1 ml of 100% ethanol. At this time, the mixture of 5 μg/ml propidium iodide and RNAse was separately prepared. The fixed cells were centrifuged to remove the supernatant and then washed once with PBS. Simultaneously, the staining agent as previously prepared above was added to the fixed cells and then warmed in an incubator at 37° C. for 30 minutes. The cells stained with propidium iodide was sealed with foil, stored at 4° C. and then subjected to a flow cytometry analysis using FACscan (Becton Dickinson, Calif.) as the analyzing apparatus.

iNOS = test: Inhibition of iNOS expression at the level of transcription through RT-PCR; assay type: cell-based; conditions: FIG. 11a; 50 μg/ml; LPS 50 ng/ml
Description: In order to identify the ingredient having an inhibitory activity against COX-II and inducible nitric oxide synthetase (iNOS) as the causal factors of rheumatoid arthritis in the extract used as the effective component of the pharmaceutical composition according to the present invention as in Experiment 6 above, the cells were distributed in T75 flask at the concentration of 10^5 cells, incubated for 7 days and then stimulated for 2 hours by introducing LPS in the flask at the concentration of 50 ng/ml. Then, the extract of the present invention was added so as to make the final concentration of 50 μg/ml. The cells were harvested into a 1.5 ml Eppendorf tube and centrifuged with 15,000 rpm at 4° C. for 15 minutes to remove the supernatant. 200 μl of RNAzol solution was added to the residue followed by addition of 50 μl of chloroform. The cells were lysed by careful pippeting, and then centrifuged with 15,000 rpm at 4° C. for 15 minutes to recover a total RNA, which was then precipitated at 4° C. for 15 minutes by adding the same volume of isopropanol, washed once with 75% ethanol and then dried. The cell lysate was dissolved by adding 20 μl of […] and then warming the mixture at 60° C. for 30 minutes. […]

COX-II [6] = test: Expression of COX-II protein by immunocytochemical analysis in synovial cells; assay type: cell-based; conditions: 10 μg/ml
Description: In order to determine whether the compound identified as the effective component of the pharmaceutical composition separated by the present invention induces an inhibitory effect on COX-II of synovial cells in joint portion, 10^4 synovial cells were distributed on 5% DMEM medium supplemented with penicillin/streptomycin in 6-well culture dish containing a slimb over glass, incubated for 24 hours at 37° C., during which the extract of the present invention was added to the concentration of 10 μg/ml to observe the reaction. The waste was removed and then, the cells were washed once with PBS, fixed with methanol and then washed with PBS. The cells were labeled with the primary antibody COX-II and then allowed to stand at 4° C. for about one hour. Then, the cells were labeled with a fluorescence (fluorescein isothiocyanate: FITC) as the secondary antibody, allowed to stand for about one hour while masking from light with foil and then observed under a fluorescence microscope.

synovial cell lines = test: Effect on cell cycle of synovial cell lines (flow cytometry); assay type: cell-based, human; conditions: 20 μg/ml, LPS 50 ng/ml, propidium iodide flow cytometry
Description: as §2

[7] = system: edema-induced albino rats; test: Joint rupture in edema-inhibited albino rats by X-ray analysis; assay type: in vivo; conditions: oral 14 days, 75 μg/ml; about 70 days
Description: The respective water extract and organic solvent fractions were orally administered for 14 days at the concentration of 75 μg/ml to investigate their inhibitory effect on edema as in Experiment 1. The test albino rats were anesthetized to take X-ray photograph.

[8] = system: NO formation in RAW 264.7 cell lines; test: NO formation in macrophage cells stimulated by lipid polysaccharide; assay type: cell-based; conditions: 10 μg/ml; LPS 50 ng/well; Greiss reagent
Description: In order to identify whether the extracts obtained according to the present invention can inhibit the synthesis of nitric oxide (NO) as the potent inducer of inflammation in blood due to edema as above, macrophage RAW 264.7 cell lines were distributed in a 96-well microplate at the concentration of 10^3 cells per well and then incubated for 12 hours. Then, lipid polysaccharide was added to the plate at the concentration of 50 ng/well to stimulate the cells for 2 hours. The respective organic solvent fractions were added to the plate to the final concentration of 10 μg/ml followed by addition of 50 μl of Greiss reagent solution, and then allowed to react together at room temperature. Then, the absorbance of the plate was measured at 540 nm of ELISA (enzyme-linked immunosorbent assay) reader. For comparative analysis, 0.1, 1, 10, 20, 50, 100, 150 μM sodium nitrite as the standard solution were developed with sodium nitroprusside dihydrate (SNP).

[9] = system: nogo-A expressed U-373 MG cell line; test: Neurite regeneration in nogo-A expressing glioblastoma cells (vertebral neuroparalysis); assay type: cell-based; conditions: nogo-A transfected U-373 cells; phase-contrast microscope
From the text: Simultaneously, it was also observed whether neurites can be regenerated by treatment with neuronal growth factor (NGF) or whether the fractions of the present invention can provide the same effect, by taking a photograph with a phase-contrast microscope of 200 magnifications.

[10] = system: CAM formation induced by synovial cells; test: Angiogenesis of synovial cells in chorioallantoic membrane (CAM) of fertilized egg; conditions: 10 μg/ml on CAM; compared to control group
Description: In order to determine the effect of the organic solvent fractions obtained in Experiment 1 on the angionenesis of synovial cells using the cells separated in Experiment 2, synovial cells were injected into fertilized egg and then incubated in an incubator at 37° C. for 3 days to observe the formation of chorioallantoic membrane (CAM). In the present state, the fractions separated according to the above method were respectively distributed on CAM at the concentration of 10 μg/ml to observe the degree of CAM decrease.

SMILES | effect on COX-II expression (RT-PCR) (COX-II [1]; FIG. 11c, respective fractions) | induction of apoptosis (Raw 264.7 cell lines [2]) | effect on arthritis [3] | induction of apoptosis (synovial cells) | edema size after treatment ([4]; Table 3 (best fractions), measured after 70 days, unit not given, in mm) | edema size before treatment ([4]; Table 3 (best fractions), unit not given, in mm) | inhibitory effect on edema [4] | effect on cell cycle (Raw 264.7 cell lines [5]) | effect on COX-II expression (RT-PCR) (COX-II [1]; FIG. 11a, 50 μg/ml, LPS 50 ng/ml) | effect on iNOS expression (RT-PCR band near 278 bp) (iNOS) | COX-II protein expression (immunofluorescence, FITC) (COX-II [6]) | effect on cell cycle (synovial cell lines) | osteogenesis (X-ray) [7] | rupture of cartilage in arthritic portion (X-ray) [7] | inhibition of NO formation [8] | neurite pattern (regeneration of neurites) [9] | induction of CAM formation (angiogenesis by synovial cells) [10]
C[C@]1(OC(=O)/C=C/c2ccccc2)C[C@@H](O)[C@]2(O)C=CO[C@@H](O[C@@H]3O[C@H](CO)[C@@H](O)[C@H](O)[C@H]3O)[C@@H]21 [LNE-1, harpagoside] | strongly inhibit the protein expression | more strongly inducing the apoptosis | moderate pharmacological effect | more strongly inducing the apoptosis | 5.1 ± 2 | 15.1 ± 2 | potent inhibitory effect on edema | – | – | – | – | – | – | – | – | – | –
OC[C@H]1O[C@H](OC[C@H]2O[C@H](OC[C@H]3O[C@H](O[C@]4(CO)O[C@H](CO)[C@@H](O)[C@@H]4O)[C@H](O)[C@@H](O)[C@@H]3O)[C@H](O)[C@@H](O)[C@H]2O)[C@H](O)[C@@H](O)[C@H]1O [LNE-2, starchyose] | – | – | – | – | – | – | – | induced G0/G1 arrest | – | – | – | – | – | – | – | – | –
C[C@]1(O)C[C@@H](O)[C@]2(O)C=CO[C@@H](O[C@H]3O[C@H](CO)[C@@H](O)[C@H](O)[C@H]3O)[C@@H]21 [LNE-3, harpagide] | strongly inhibit the protein expression | more strongly inducing the apoptosis | most effective | more strongly inducing the apoptosis | – | – | potent inhibitory effect on edema; also recorded: most significant | – | inhibitory effect at the level of transcription | have an effect on the protein expression | tendency to greatly decrease the protein expression | induced the apoptosis | effect of stimulating the osteogenesis | inhibits the rupture of cartilage in arthritic portion | stronger inhibitory effect on NO formation | neurites were lengthened | more strongly inhibited the induction of CAM formation
